Source: US20250115620A1, “BRIDGED TRICYCLIC CARBAMOYLPYRIDONE COMPOUNDS AND USES THEREOF” (Gilead Sciences, Inc., priority 2022, published 2025)
Where two headings read alike, the source gives them in different places.

Legend:
HIV-1 (IIIB) = experiment: microbe, parasite or virus in culture; type: cell-based; conditions: Human immunodeficiency virus 1, IIIB, MT4, 120 h, HIV-1 (IIIB) in MT-4 cells, 5 days incubation, Cell Titer Glo; read-out: MT4 EC50
in vitro = conditions: human, uninfected MT-4 cells
pLAI reporter virus = experiment: microbe, parasite or virus in culture; type: cell-based, HIV; conditions: Human immunodeficiency virus 1, MT4, 72 h

CC1=NO[C@]2(CC[C@H](C)N3C[C@H]2n2cc(C(=O)NCc4ccc(F)cc4F)c(=O)c(O)c2C3=O)C1O (stereo partly drawn) [Example 24, (3′S,5S,7′R)—N-(2,4-difluorobenzyl)-4,12′-dihydroxy-3,3′-dimethyl-1′,11′-dioxo-1′,4′,5′,11′-tetrahydro-3′H,4H,7′H-spiro[isoxazole-5,6′-[2,7]methanopyrido[1,2-a][1,4]diazonine]-10′-carboxamide]
EC50 (HIV-1 (IIIB)): 5.9 nM | CC50 at 5 days (in vitro): ≥ 50000 nM | EC50 (pLAI reporter virus; read-out: RLUC 50% HS EC50): 4.9 nM | EC50 (pLAI reporter virus; read-out: RLUC CCM EC50): 2.8 nM

CC1=NO[C@]2(CC[C@H](C)N3C[C@H]2n2cc(C(=O)NCc4ccc(F)cc4F)c(=O)c(O)c2C3=O)C1=O [Example 25, (3′S,5S,7′R)—N-(2,4-difluorobenzyl)-12′-hydroxy-3,3′-dimethyl-1′,4,11′-trioxo-1′,4′,5′,11′-tetrahydro-3′H,4H,7′H-spiro[isoxazole-5,6′-[2,7]methanopyrido[1,2-a][1,4]diazonine]-10′-carboxamide]
EC50 (HIV-1 (IIIB)): ≥ 100 nM | CC50 at 5 days (in vitro): ≥ 50000 nM | EC50 (pLAI reporter virus; read-out: RLUC 50% HS EC50): 58.1 nM | EC50 (pLAI reporter virus; read-out: RLUC CCM EC50): 34 nM

CC1=NO[C@@]2(CC[C@H](C)N3C[C@H]2n2cc(C(=O)NCc4ccc(F)cc4F)c(=O)c(O)c2C3=O)[C@H]1C [Example 26, (3′S,4S,5S,7′R)—N-(2,4-difluorobenzyl)-12′-hydroxy-3,3′,4-trimethyl-1′,11′-dioxo-1′,4′,5′,11′-tetrahydro-3′H,4H,7′H-spiro[isoxazole-5,6′-[2,7]methanopyrido[1,2-a][1,4]diazonine]-10′-carboxamide]
EC50 (HIV-1 (IIIB)): 0.5 nM | CC50 at 5 days (in vitro): 13000 nM | EC50 (pLAI reporter virus; read-out: RLUC 50% HS EC50): 9.5 nM | EC50 (pLAI reporter virus; read-out: RLUC CCM EC50): 0.3 nM

CC1=NO[C@@]2(CC[C@H](C)N3C[C@H]2n2cc(C(=O)NCc4ccc(F)cc4F)c(=O)c(O)c2C3=O)[C@H]1O [Example 28, (3′S,4S,5R,7′R)—N-(2,4-difluorobenzyl)-4,12′-dihydroxy-3,3′-dimethyl-1′,11′-dioxo-1′,4′,5′,11′-tetrahydro-3′H,4H,7′H-spiro[isoxazole-5,6′-[2,7]methanopyrido[1,2-a][1,4]diazonine]-10′-carboxamide]
EC50 (HIV-1 (IIIB)): 0.9 nM | CC50 at 5 days (in vitro): 47000 nM | EC50 (pLAI reporter virus; read-out: RLUC 50% HS EC50): 51.5 nM | EC50 (pLAI reporter virus; read-out: RLUC CCM EC50): 0.4 nM

CC1=NO[C@@]2(CC[C@H](C)N3C[C@H]2n2cc(C(=O)NCc4ccc(F)cc4F)c(=O)c(O)c2C3=O)C1=O [Example 29, (3′S,5R,7′R)—N-(2,4-difluorobenzyl)-12′-hydroxy-3,3′-dimethyl-1′,4,11′-trioxo-1′,4′,5′,11′-tetrahydro-3′H,4H,7′H-spiro[isoxazole-5,6′-[2,7]methanopyrido[1,2-a][1,4]diazonine]-10′-carboxamide]
EC50 (HIV-1 (IIIB)): 1.7 nM | CC50 at 5 days (in vitro): ≥ 50000 nM | EC50 (pLAI reporter virus; read-out: RLUC 50% HS EC50): 168 nM | EC50 (pLAI reporter virus; read-out: RLUC CCM EC50): 0.8 nM

CC1=NO[C@@]2(CC[C@H](C)N3C[C@H]2n2cc(C(=O)NCc4ccc(F)cc4F)c(=O)c(O)c2C3=O)[C@@H]1O [Example 30, (3′S,4R,5R,7′R)—N-(2,4-difluorobenzyl)-4,12′-dihydroxy-3,3′-dimethyl-1′,11′-dioxo-1′,4′,5′,11′-tetrahydro-3′H,4H,7′H-spiro[isoxazole-5,6′-[2,7]methanopyrido[1,2-a][1,4]diazonine]-10′-carboxamide]
EC50 (HIV-1 (IIIB)): 1.2 nM | CC50 at 5 days (in vitro): 40000 nM | EC50 (pLAI reporter virus; read-out: RLUC 50% HS EC50): 79.4 nM | EC50 (pLAI reporter virus; read-out: RLUC CCM EC50): 0.5 nM

CC1=NO[C@@]2(CC[C@H](C)N3C[C@H]2n2cc(C(=O)NCc4c(F)cc(F)cc4F)c(=O)c(O)c2C3=O)[C@H]1O [Example 31, (3′S,4S,5R,7′R)-4,12′-dihydroxy-3,3′-dimethyl-1′,11′-dioxo-N-(2,4,6-trifluorobenzyl)-1′,4′,5′,11′-tetrahydro-3′H,4H,7′H-spiro[isoxazole-5,6′-[2,7]methanopyrido[1,2-a][1,4]diazonine]-10′-carboxamide]
EC50 (HIV-1 (IIIB)): 1.4 nM | CC50 at 5 days (in vitro): 30000 nM | EC50 (pLAI reporter virus; read-out: RLUC 50% HS EC50): 47.2 nM | EC50 (pLAI reporter virus; read-out: RLUC CCM EC50): 0.3 nM

CC1=NO[C@@]2(CC[C@H](C)N3C[C@H]2n2cc(C(=O)NCc4c(F)cc(F)cc4F)c(=O)c(O)c2C3=O)[C@H]1F [Example 32, (3′S,4S,5R,7′R)-4-fluoro-12′-hydroxy-3,3′-dimethyl-1′,11′-dioxo-N-(2,4,6-trifluorobenzyl)-1′,4′,5′,11′-tetrahydro-3′H,4H,7′H-spiro[isoxazole-5,6′-[2,7]methanopyrido[1,2-a][1,4]diazonine]-10′-carboxamide]
EC50 (HIV-1 (IIIB)): 1.5 nM | CC50 at 5 days (in vitro): 21200 nM | EC50 (pLAI reporter virus; read-out: RLUC 50% HS EC50): 261 nM | EC50 (pLAI reporter virus; read-out: RLUC CCM EC50): 0.4 nM

CC1=NO[C@@]2(CC[C@H](C)N3C[C@H]2n2cc(C(=O)NCc4c(F)cc(F)cc4F)c(=O)c(O)c2C3=O)[C@@H]1F [Example 33, (3′S,4R,5R,7′R)-4-fluoro-12′-hydroxy-3,3′-dimethyl-1′,11′-dioxo-N-(2,4,6-trifluorobenzyl)-1′,4′,5′,11′-tetrahydro-3′H,4H,7′H-spiro[isoxazole-5,6′-[2,7]methanopyrido[1,2-a][1,4]diazonine]-10′-carboxamide]
EC50 (HIV-1 (IIIB)): 0.7 nM | CC50 at 5 days (in vitro): 14100 nM | EC50 (pLAI reporter virus; read-out: RLUC 50% HS EC50): 342 nM | EC50 (pLAI reporter virus; read-out: RLUC CCM EC50): 0.4 nM

CC1=NO[C@@]2(CC[C@H](C)N3C[C@H]2n2cc(C(=O)NCc4ccc(F)c(Cl)c4F)c(=O)c(O)c2C3=O)[C@H]1C [Example 34, (3′S,4S,5S,7′R)—N-(3-chloro-2,4-difluorobenzyl)-12′-hydroxy-3,3′,4-trimethyl-1′,11′-dioxo-1′,4′,5′,11′-tetrahydro-3′H,4H,7′H-spiro[isoxazole-5,6′-[2,7]methanopyrido[1,2-a][1,4]diazonine]-10′-carboxamide]
EC50 (HIV-1 (IIIB)): 0.6 nM | CC50 at 5 days (in vitro): 13600 nM | EC50 (pLAI reporter virus; read-out: RLUC 50% HS EC50): 76.7 nM | EC50 (pLAI reporter virus; read-out: RLUC CCM EC50): 0.2 nM

CC1=NO[C@@]2(CC[C@H](C)N3C[C@H]2n2cc(C(=O)NCc4ccc(F)c(Cl)c4F)c(=O)c(O)c2C3=O)[C@H]1O [Example 35, (3′S,4S,5R,7′R)—N-(3-chloro-2,4-difluorobenzyl)-4,12′-dihydroxy-3,3′-dimethyl-1′,11′-dioxo-1′,4′,5′,11′-tetrahydro-3′H,4H,7′H-spiro[isoxazole-5,6′-[2,7]methanopyrido[1,2-a][1,4]diazonine]-10′-carboxamide]
EC50 (HIV-1 (IIIB)): 0.9 nM | CC50 at 5 days (in vitro): 20300 nM | EC50 (pLAI reporter virus; read-out: RLUC 50% HS EC50): 102 nM | EC50 (pLAI reporter virus; read-out: RLUC CCM EC50): 0.3 nM

COC1=NO[C@@]2(CC[C@H](C)N3C[C@H]2n2cc(C(=O)NCc4c(F)cc(F)cc4F)c(=O)c(O)c2C3=O)C1 [Example 36, (3′S,5S,7′R)-12′-hydroxy-3-methoxy-3′-methyl-1′,11′-dioxo-N-(2,4,6-trifluorobenzyl)-1′,4′,5′,11′-tetrahydro-3′H,4H,7′H-spiro[isoxazole-5,6′-[2,7]methanopyrido[1,2-a][1,4]diazonine]-10′-carboxamide]
EC50 (HIV-1 (IIIB)): 0.7 nM | CC50 at 5 days (in vitro): 19500 nM | EC50 (pLAI reporter virus; read-out: RLUC 50% HS EC50): 27.6 nM | EC50 (pLAI reporter virus; read-out: RLUC CCM EC50): 0.2 nM

COC1=NO[C@]2(CC[C@H](C)N3C[C@H]2n2cc(C(=O)NCc4c(F)cc(F)cc4F)c(=O)c(O)c2C3=O)C1 [Example 37, (3′S,5R,7′R)-12′-hydroxy-3-methoxy-3′-methyl-1′,11′-dioxo-N-(2,4,6-trifluorobenzyl)-1′,4′,5′,11′-tetrahydro-3′H,4H,7′H-spiro[isoxazole-5,6′-[2,7]methanopyrido[1,2-a][1,4]diazonine]-10′-carboxamide]
EC50 (HIV-1 (IIIB)): 1.6 nM | CC50 at 5 days (in vitro): 49900 nM | EC50 (pLAI reporter virus; read-out: RLUC 50% HS EC50): 8.3 nM | EC50 (pLAI reporter virus; read-out: RLUC CCM EC50): 0.7 nM

COCCOC1=NO[C@@]2(CC[C@H](C)N3C[C@H]2n2cc(C(=O)NCc4c(F)cc(F)cc4F)c(=O)c(O)c2C3=O)C1 [Example 38, (3′S,5S,7′R)-12′-hydroxy-3-(2-methoxyethoxy)-3′-methyl-1′,11′-dioxo-N-(2,4,6-trifluorobenzyl)-1′,4′,5′,11′-tetrahydro-3′H,4H,7′H-spiro[isoxazole-5,6′-[2,7]methanopyrido[1,2-a][1,4]diazonine]-10′-carboxamide]
EC50 (HIV-1 (IIIB)): 1.2 nM | CC50 at 5 days (in vitro): 22100 nM | EC50 (pLAI reporter virus; read-out: RLUC 50% HS EC50): 1.5 nM | EC50 (pLAI reporter virus; read-out: RLUC CCM EC50): 0.3 nM

[2H]C([2H])([2H])OC1=NO[C@@]2(CC[C@H](C)N3C[C@H]2n2cc(C(=O)NCc4c(F)cc(F)cc4F)c(=O)c(O)c2C3=O)C1([2H])[2H] [Example 39, (3′S,5S,7′R)-12′-hydroxy-3-(methoxy-d3)-3′-methyl-1′,11′-dioxo-N-(2,4,6-trifluorobenzyl)-1′,4′,5′,11′-tetrahydro-3′H,4H,7′H-spiro[isoxazole-5,6′-[2,7]methanopyrido[1,2-a][1,4]diazonine]-4,4-d2-10′-carboxamide]
EC50 (HIV-1 (IIIB)): 1 nM | CC50 at 5 days (in vitro): 23500 nM | EC50 (pLAI reporter virus; read-out: RLUC 50% HS EC50): 35.4 nM | EC50 (pLAI reporter virus; read-out: RLUC CCM EC50): 0.3 nM

COCCOC1=NO[C@@]2(CC[C@H](C)N3C[C@H]2n2cc(C(=O)NCc4ccc(F)cc4F)c(=O)c(O)c2C3=O)C1 [Example 41, (3′S,5S,7′R)—N-(2,4-difluorobenzyl)-12′-hydroxy-3-(2-methoxyethoxy)-3′-methyl-1′,11′-dioxo-1′,4′,5′,11′-tetrahydro-3′H,4H,7′H-spiro[isoxazole-5,6′-[2,7]methanopyrido[1,2-a][1,4]diazonine]-10′-carboxamide]
EC50 (HIV-1 (IIIB)): 0.6 nM | CC50 at 5 days (in vitro): 21500 nM | EC50 (pLAI reporter virus; read-out: RLUC 50% HS EC50): 0.5 nM | EC50 (pLAI reporter virus; read-out: RLUC CCM EC50): 0.4 nM

C[C@H]1CC[C@]2(CC(C#N)=NO2)[C@H]2CN1C(=O)c1c(O)c(=O)c(C(=O)NCc3ccc(F)cc3F)cn12 [Example 42, (3′S,5S,7′R)-3-cyano-N-(2,4-difluorobenzyl)-12′-hydroxy-3′-methyl-1′,11′-dioxo-1′,4′,5′,11′-tetrahydro-3′H,4H,7′H-spiro[isoxazole-5,6′-[2,7]methanopyrido[1,2-a][1,4]diazonine]-10′-carboxamide]
EC50 (HIV-1 (IIIB)): ≥ 100 nM | CC50 at 5 days (in vitro): ≥ 50000 nM | EC50 (pLAI reporter virus; read-out: RLUC 50% HS EC50): 550 nM | EC50 (pLAI reporter virus; read-out: RLUC CCM EC50): 157 nM
